“Also recorded” adds a separate entry of the source. Like-named read-outs stand apart in the source and are kept apart here.
How the values were obtained:
atrial fibrillation = assay: D-ribose administered to patients with a diagnosis of atrial fibrillation; assay type: in vivo, human
Description: Eight patients with a diagnosis of atrial fibrillation were administered D-ribose. It can be seen from the above data that not all patients are completely and immediately relieved of atrial fibrillation. […] Therefore, it is recommended that patients ingest 10 to 15 grams of D-ribose daily.

[1] = cited from earlier work

O=C[C@H](O)[C@H](O)[C@H](O)CO [D-ribose]
Relief? (atrial fibrillation; Patient 1, duration of AT Recent, daily amount N/R, other medication CoQ): complete, immediate | Relief? (atrial fibrillation; Patient 2, duration, daily amount and other medications N/R): complete, immediate | Relief? (atrial fibrillation; Patient 3, 5 grams D-ribose daily): only partial relief; also recorded: “helped” | Relief? (atrial fibrillation; Patient 4, 5 grams D-ribose daily): delayed relief; also recorded: complete, within two | Relief? (atrial fibrillation; Patient 5, duration 20 years, 10 grams D-ribose daily, CoQ, L-carnitine, Mg): complete and immediate relief | Relief? (atrial fibrillation; Patient 6, 10-15 grams D-ribose daily): complete and immediate relief; also recorded: “practically | Relief? (atrial fibrillation; Patient 7, 5 grams D-ribose daily): complete, immediate | Side effects (atrial fibrillation; administration of low doses of D-ribose): no side effects | Persistence of relief of atrial fibrillation (atrial fibrillation; patients on continued D-ribose): more than a year | Digestive symptoms ([1]; dose of five grams, most people): without experiencing these digestive symptoms | Digestive symptoms ([1]; doses over about eight grams, many people): flatulence and diarrhea
